Experimental data reported in patent EP2692724B1, “CHIRAL 3-HYDROXYPYRID-4-ONE DERIVATIVE, AND SYNTHESIS AND USE THEREOF” (Zhejiang University, priority 2011, dated 2012).
Where a name gives a salt, the structure may show the parent alone.

Key:
^59Fe-Ferritin = assay: Biological effect of iron chelators over 59Fe-Ferritin/Rat (iron excretion ability, oral); format: in vivo; conditions: for Iron Excretion (%): rat model, taken orally (intragastric) 1 h after tail vein injection of 59Fe-Ferritin, test ends after 24 h, n=5; for iron excretion ability compared with CP20: in vivo rat test, administered in equimolar amounts
Description: According to methods described by Pippard's research group [Blood 58: 685-692], use ^59Fe to label ferritin in rat liver. Isolate ^59Fe-labelled ferritin by the method described by Bjorklid and Helgeland. In the preparation process, the rats were injected intraperitoneally with iron dextran, and intravenous administration of red blood cells, in order to keep the plasma transferrin saturated. This method ensures that most of ^59Fe (III) is absorbed by the liver, so ^59Fe-ferritin with high specific radioactivity can be obtained.
Performance of one shot intraperitoneal injection of 15mg iron dextran to 350∼400 g rats. After one week, jugular vein cannula is performed and then a 24 h's rest. Then the second day, each rat is given packed red cells (2 mL/100g). After 24 h, each rat is injected via the jugular vein cannula with 200 µCi ^59FeCl solution (Amersham Life Science). ^59FeCl3 (1mCi) is diluted 0.5 mL citrate (50mM, pH 2.5). Each experiment employs 5 rats, total radiation is 1mCi. 24 h after isotopically labeled injection, the livers were removed from rats.
Homogenization of liver is processed in 4 vol. (w/v) 0.25M acetate buffer. The homogenate was heated to 75°C with stirring for 10min. After cooling to 4°C, remove solid protein by centrifugation at 2500 g for 15 min. Treat the supernatant that contains tissue iron protein with half saturated (NH4)2SO4, while cooling in ice water for 30 min. The precipitate obtained by centrifugation at 3500 g at 4°C for 15 min, is dissolved in 0.25M pH=4.8 acetate buffer. Undissolved precipitate is removed through a Pd-10 column (Sephadex®, G-25M, Pharmacia Biotech). The resulting solution is centrifuged at 100,000 g at 4°C for 2 h. The final precipitate is dissolved in 0.05M pH=7.4 phosphate buffer, and stored at 4°C. The purity of ^59Fe-ferritin and normal Ferritin (Sigma Chemical Co.) are compared by electrophoresis. Iron concentration of ferritin is tested by colorimetry [Biochem Mol. Biol Int 35(3): […]].
Starved rat was injected ^59Fe-Ferritin via tail vein, in order to label rat liver cells with ^59Fe. After 1 h, each rat is given an iron chelator via intragastric injection. Blank group is administered with water by lavage. Each rat is placed in a metabolic cage, collect urine and feces. All rats are given free access to food after oral administration 1h later, and are free to drink water during the whole experiment. Test ends after 24 h of the tail vein injection of ^59Fe-Ferritin. All rats are killed by the cervical dislocation, then the liver and gastrointestinal system (including its content and feces) are collected for ^59Fe quantification. Calculation for iron excretion ability of iron chelators with following formula: (1) Iron Excretion(%)=^59Fe Activity(intestinal track & feces)/(^59Fe Activity(intestinal tracks & feces)+ ^59Fe Activity(liver))×100% Table 1 Iron excretion ability of taking chiral 3-hydroxypyridine-4-one orally on rat model (n=5).

mice = assay: Acute toxicity test in mice (maximum oral dosage); format: in vivo; conditions: suspension of maximum solubility in 0.5% CMC-Na, dose with no fatality
Description: Prepare suspension of maximum solubility of each compound with 0.5% CMC-Na. Maximum oral dosage to mice is 0.4 mL/10g. Blank group took the same volume 0.5% CMC-Na solution orally (blank group and test group has 4 mice each, 2 female and 2 male). […] Monitor reaction of animal right after drug administration, including appearance, activities, mental states, appetites, urea/feces and its color, fur, nose, eye, mouth, if there are any abnormal secretions and death situation, give timely autopsy to dead animals. If any obvious pathology of organs is found, perform histopathological inspection. Every inspection should be performed every 30∼60 min in the 1st day, then check once a day, record animal toxicity and death distribution. Table 2. Maximum dosage of a few 3-hydroxypyridin-4-one derivatives to mice.

[1] = reduced by glycosylation of the hydroxyl group at 3' position; cited from earlier work

| Compound | Iron Excretion (%) (^59Fe-Ferritin) | other results |
| --- | --- | --- |
| 3-Hydroxy-1-((2S)-1-hydroxy-3-methyl pentyl-2-)-2-ethyl pyridine-4(1H)-one hydrochloride [CN436] | 5.8% |  |
| 3-Hydroxy-1-((2S)-1-hydroxy-3-methyl pentyl-2-)-2-methyl pyridine-4(1H)-one hydrochloride [CN336] | 10.8% |  |
| Cc1c(O)c(=O)ccn1[C@H](CO)C(C)C [CN116, (S)-3-Hydroxy-1-(1-hydroxy-3-methylbutyl-2-)-2-methyl pyridine-4(1H)-one] | 18.7% | iron excretion ability compared with CP20 (^59Fe-Ferritin): several times better than CP20 |
| Cc1c(O)c(=O)ccn1[C@@H](CO)Cc1ccccc1 [CN128, (R)-3-Hydroxy-1-(1-hydroxy-3-benzylpropyl-2-)2-methyl pyridine-4(1H)-one] | 24.8% | iron excretion ability compared with CP20 (^59Fe-Ferritin): several times better than CP20 |
| CCc1c(O)c(=O)ccn1[C@@H](C)CO [CN206, (S)-3-Hydroxy-1-(1-hydroxypropyl-2-)-2-ethylpyridine-4(1H)-one] | 16% | iron excretion ability compared with CP20 (^59Fe-Ferritin): several times better than CP20; Maximum dosage: Dosage(g/kg) (mice): 3.75 g/kg; Maximum dosage: Mole dosage(mmol/kg) (mice): 19.0 mmol/kg |
| CCc1c(O)c(=O)ccn1[C@@H](CO)Cc1ccccc1 [CN228, (R)-3-Hydroxy-1-(1-hydroxy-3-phenylpropyl-2-)-2-ethyl pyridine-4(1H)-one] | 22.3% | iron excretion ability compared with CP20 (^59Fe-Ferritin): several times better than CP20 |
| Cc1c(O)c(=O)ccn1[C@@H](CO)C(C)C [CN318, (R)-3-Hydroxy-1-(1-hydroxy-3-methylbutyl-2-)-2-methyl pyridine-4(1H)-one hydrochloride] | 8.0% |  |
| Cc1c(O)c(=O)ccn1[C@H](CO)Cc1ccccc1 [CN326, (S)-3-Hydroxy-1-(1-hydroxy-3-phenylpropyl-2-)-2-methyl pyridine-4(1H)-one hydrochloride] | 12.8% |  |
| CCc1c(O)c(=O)ccn1[C@H](C)CO [CN408, (R)-3-Hydroxy-1-(1-hydroxy-3-propyl-2-)-2-ethyl pyridine-4(1H)-one hydrochloride] | 10.6% |  |
| CCc1c(O)c(=O)ccn1[C@H](CO)C(C)C [CN416, (S)-3-Hydroxy-1-(1-hydroxy-3-methylbutyl-2-)-2-ethyl pyridine-4(1H)-one hydrochloride] | 7.9% |  |
| CCc1c(O)c(=O)ccn1[C@@H](CO)C(C)C [CN418, (R)-3-Hydroxy-1-(1-hydroxy-3-methylbutyl-2-)-2-ethyl pyridine-4(1H)-one hydrochloride] | 10.6% |  |
| CCc1c(O)c(=O)ccn1[C@H](CO)Cc1ccccc1 [CN426, (S)-3-Hydroxy-1-(1-hydroxy-3-phenylpropyl-2-)-2-ethyl pyridine-4(1H)-one hydrochloride] | 13.1% |  |
| Cc1c(O)c(=O)ccn1C [CP20, reference compound] | 11.4% | Maximum dosage: Dosage(g/kg) (mice): 1.50 g/kg; Maximum dosage: Mole dosage(mmol/kg) (mice): 10.7 mmol/kg; half-life [1]: 2∼3 h |
| (R)-3-Hydroxy-1-(1-hydroxy-3-propyl-2-)-2-methyl pyridine-4(1H)-one hydrochloride [CN308] | 6.5% |  |
| (S)-3-hydroxy-1-(1-hydroxy propyl-2-)-2-methyl pyridine-4(1H)-one hydrochloride [CN306] | 11.9% |  |
